# Data taken from ChEMBL document CHEMBL1641398, “Norlignans, acylphloroglucinols, and a dimeric xanthone from Hypericum chinense” (2010).
# Assays:
# Assay type in all cases: functional
# Staphylococcus aureus [1] = assay: Antibacterial activity against epidemic methicillin-resistant Staphylococcus aureus 16 after 18 hrs by MTT assay; conditions: Staphylococcus aureus, 16, 18 h
# Staphylococcus aureus [2] = assay: Antibacterial activity against multi drug-resistant Staphylococcus aureus 1199B after 18 hrs by MTT assay
# Staphylococcus aureus [3] = assay: Antibacterial activity against erythromycin-resistant Staphylococcus aureus RN4220 after 18 hrs by MTT assay; conditions: RN4220, 18 h
# Staphylococcus aureus [4] = assay: Antibacterial activity against multi drug-resistant Staphylococcus aureus XU212 after 18 hrs by MTT assay; conditions: XU212, 18 h
# Staphylococcus aureus [5] = assay: Antibacterial activity against epidemic methicillin-resistant Staphylococcus aureus 15 after 18 hrs by MTT assay; conditions: Staphylococcus aureus, 15, 18 h
# Staphylococcus aureus [6] = assay: Antibacterial activity against Staphylococcus aureus ATCC […] after 18 hrs by MTT assay
SMILES,MIC (Staphylococcus aureus [1]),MIC (Staphylococcus aureus [2]),MIC (Staphylococcus aureus [3]),MIC (Staphylococcus aureus [4]),MIC (Staphylococcus aureus [5]),MIC (Staphylococcus aureus [6])
COc1cc(O)c(C(=O)CC(C)C)c(O)c1C [ASPIDINOL C],4 µg/mL,2 µg/mL,16 µg/mL,32 µg/mL,8 µg/mL,8 µg/mL
CCC(C)C(=O)c1c(O)cc(OC)c(C)c1O (stereo not drawn) [ASPIDINOL D],4 µg/mL,4 µg/mL,8 µg/mL,8 µg/mL,4 µg/mL,8 µg/mL
CCn1cc(C(=O)O)c(=O)c2cc(F)c(N3CCNCC3)cc21 [NORFLOXACIN],128 µg/mL,32 µg/mL,0.5 µg/mL,8 µg/mL,0.5 µg/mL,0.5 µg/mL
